Results taken from patent US8071575B2, “Methods and compounds for the targeted delivery of agents to bone for interaction therewith” (priority 2007, dated 2011).

How the values were obtained:
Assay type in all cases: in vivo, Sprague-Dawley female rats
[1] = Body weight of OVX rats during treatment; conditions: oral 3000 μg/kg, three times per week for 6 weeks
Experimental: (§1) Animals. Six month old, bilaterally ovariectomized (OVX) or sham operated Sprague-Dawley female rats (Harlan Laboratories, Indianapolis, Ind.) were maintained at the University of Louisville Research Resources Center at 22° C. with a 12-h light/dark cycle and ad libitum access to tap water and rodent chow (Purina Laboratory Rodent Diet 5001). All animal procedures were approved by the Institutional Animal Care and Use Committee, which is certified by the American Association for Accreditation of Laboratory Animal Care.
In vivo experiments were conducted in order to investigate the efficacy of compounds of the presently-disclosed subject matter. In all of the experiments, OVX and sham operated rats were randomly divided into groups of 5-7 animals. In all of the studies experimental groups included: i) Sham-operated control (euthanized six weeks post surgery as a pretreatment control), ii) OVX control (euthanized six weeks post surgery as a pretreatment control), iii) Sham control receiving vehicle, iv) OVX control receiving vehicle, v) OVX receiving 17-ethinyl estradiol (equimolar concentration with a selected test compound), vi) OVX receiving alendronate (1.6 mg/kg), and vii) OVX receiving parathyroid hormone 1-34 (PTH) ([…]). 17-ethinyl estradiol (17 EE) is a free estrogenic agent known to be orally active, and can serve as an example of an anti-catabolic agent. […]

OVX rats [2] = test: Uterine mass and uterine mass to body weight ratio in OVX rats; conditions: OVX rats, oral 3000 μg/kg; compared to animals treated with 17-ethinyl estradiol
Experimental: as §1
(§2) In vivo experiments were conducted in order to investigate the efficacy of compounds of the presently-disclosed subject matter. In all of the experiments, OVX and sham operated rats were randomly divided into groups of 5-7 animals. In all of the studies experimental groups included: i) Sham-operated control (euthanized six weeks post surgery as a pretreatment control), ii) OVX control (euthanized six weeks post surgery as a pretreatment control), iii) Sham control receiving vehicle, iv) OVX control receiving vehicle, v) OVX receiving 17-ethinyl estradiol (equimolar concentration with a selected test compound), vi) OVX receiving alendronate (1.6 mg/kg), and vii) OVX receiving parathyroid hormone 1-34 (PTH) ([…]). 17-ethinyl estradiol (17 EE) is a free estrogenic agent known to be orally active, and can serve as an example of an anti-catabolic agent. Alendronate (Alen) is a bisphosphonate that is currently used to treat osteoporosis (e.g., Fosamax®, Merck & Co., Inc,), and can serve as an example of an anti-catabolic agent. Parathyroid hormone 1-34 (PTH) is an agent that can serve as an example of an anabolic agent. All compounds and vehicle (1% DMSO in corn oil) were administered three times per week orally by gavage except for PTH which was administered via a subcutaneous injection in a volume of 0.5 ml/kg body mass thrice per week. Compound administration was initiated 6 weeks following surgery and lasted for 6 weeks (18 doses total).
(§3) Compounds of the presently-disclosed subject matter were orally administered to OVX rats at various doses. As indicated above all BTE's were administered three times per week for 6 weeks.
(§4) Following 6 weeks of treatment, blood was obtained from each animal via cardiac puncture following an overnight fast and animals were subsequently euthanized via carbon dioxide asphyxiation. Blood was centrifuged immediately and the obtained serum samples were aliquoted and stored at −70° C. prior to analysis. Uteri were removed and fresh weights were obtained. Uterine masses were normalized to body mass at the end of the experiment. The left and right femora and left and right tibiae were subsequently collected from each animal, cleaned of soft tissue, and stored in saline at 4° C. prior to analysis.
Uterine Mass and Body Weight. […] Uterine mass can be used to as a measure of estrogenic effect occurring in a tissue outside the bone in response to treatment with a test compound or composition. Generally, a lower uterine mass can be associated with a decreased risk of adverse side effects associated with the test compound or composition. A ratio of uterine mass to body weight can be used to correct for any increase in uterine size attributable to the relative size of the individual animal. Body weight and/or uterine mass also serve as an indirect measures of toxicity of a test compound.

OVX rats [3] = test: Regional femoral density via Archimedes' Principle; conditions: three times per week for 6 weeks
Experimental: as §1, §2, §3
Following 6 weeks of treatment, blood was obtained from each animal via cardiac puncture following an overnight fast and animals were subsequently euthanized via carbon dioxide asphyxiation. […]
Regional Femoral Density via Archimedes' Principle. […] Briefly, each femur was measured with a Cen-Tech Digital Caliper and a cut was made from each end at 20% of the length of the femur plus half the width of the blade. Subsequently, the bone marrow was washed out of the femoral diaphysis and the Archimedes density for each of the three femoral regions was determined as described above.

OVX rats [4] = test: Volume fraction, ex vivo micro-computed tomography of tibia; conditions: present-tense example, no data or figure
Experimental: as §1, §2, §3, §4
Volume Fraction—Ex vivo micro-computed tomography (μCT). Volume fraction is a representative value for the amount of bone that occupies a given volume or space. High resolution image data were collected using a customized micro-CT system (ACTIS 150/225 system, BIR Inc., Lincolnshire, Ill.). The metaphysis of each right tibia was scanned over a three millimeter range and three-dimensional images were reconstructed. Data were subsequently processed to reveal the volume fraction (BV/TV) occupied by trabecular (cancellous) bone tissue, cortical bone tissue, and whole bone tissue. The resulting data provides information regarding the density of whole bone, cortical bone, and trabecular bone.

OVX rats [5] = test: Rat Osteocalcin EIA (serum); conditions: 100 or 1000 μg/kg doses
Experimental: as §1
In vivo experiments were conducted in order to investigate the efficacy of compounds of the presently-disclosed subject matter. In all of the experiments, OVX and sham operated rats were randomly divided into groups of 5-7 animals. […]
Rat Osteocalcin EIA. […] Rat serum osteocalcin levels were measured using the Rat Osteocalcin EIA Kit from Biomedical Technologies, Incorporated (Stoughton, Mass.) as recommended by the manufacturer.

SMILES | body weight [1] | ratio of uterine mass to body weight (OVX rats [2]) | uterine mass (OVX rats [2]) | regional bone density (proximal and distal left femur) (OVX rats [3]; oral 3000 μg/kg) | volume fraction (BV/TV) of trabecular, cortical and whole bone tissue (OVX rats [4]) | regional bone density (left femur) (OVX rats [3]; oral 10, 100, or 1000 μg/kg) | serum osteocalcin levels (OVX rats [5])
COc1ccc(NC(=O)CCC(=O)OC2CCC3C4CCC5=CC(=O)CCC5(C)C4CCC23C)c(O)c1C(N)=O (centres unmarked) [Formula 33] | lower body weights as compared to the OVX animals | lower | lower | higher than that of the OVX animals | increase bone density | – | –
COc1ccc(NC(=O)COCCOCCNC(=O)CCOC2CCC3C4CCc5cc(O)ccc5C4CCC23C)c(O)c1C(N)=O (centres unmarked) [Formula 123] | – | – | – | – | increase bone density | increased regional bone densities, as compared to the OVX animals | stimulates osteocalcin
